Results on 50 molecules are retold here after article PMC8708704, “Discovery of New Chemical Tools against Leishmania amazonensis via the MMV Pathogen Box” (Pharmaceuticals, 2021).

Series [1] has as its system Leishmania amazonensis promastigotes. In words: Leishmanicidal activity against promastigotes (alamarBlue assay; screening at 10 µM and IC50). The format is cell-based. Particulars: for % of inhibition at 10 µM (against L. amazonensis promastigotes): first screening; for % of inhibition at 10 µM (against L. amazonensis promastigotes) / IC50: 72 h; for IC50: read-out: Leishmania amazonensis Promastigotes IC50; for Selectivity Index (CC50/IC50), promastigotes: macrophage CC50 / promastigote IC50. As for the experimental part:
For the experiments, promastigotes of Leishmania amazonensis strain (MHOM/BR/77/LTB0016) were used; they were maintained in RPMI 1640 medium (Gibco, Massachusetts, USA) at 26 °C. […] Subsequently, the plates were analyzed on an EnSpire multimode plate reader (PerkinElmer, MA, USA) to measure their fluorescence after 72 h. […] To this end, serial dilutions were performed in 96 well plates, and incubated with the parasites for 72 h after adding alamarBlue®. Next, the plates were analyzed on the EnSpire plate reader and the IC50 values were calculated by using SigmaPlot 14.0 (Systat Software Inc., Chicago, IL, USA). Each concentration was tested in duplicate and in three independent experiments for all the compounds.
For orientation: Alamar Blue is a resazurin reagent that responds to reducing activity.

Series [2] has as its system Leishmania amazonensis intracellular amastigote. The series is described as follows: Intracellular amastigote activity (parasite rescue and transformation assay). The format is cell-based. Particulars: for IC50: Leishmania amazonensis, Macrophage, read-out: Leishmania amazonensis Intracellular Amastigote IC50. As for the experimental part: The intracellular amastigote activity was measured by parasite rescue and transformation assay, also performed according to Jain et al. […] The macrophages were placed in a 96 well plate at a density of 2 × 10^5/mL in DMEM and incubated for 5 h. […] After the incubation, the excess promastigotes were washed off and serial dilutions of the compounds were added. After 24 h of incubation, we removed the medium and added 30 μL of Schneider medium with 0.05% SDS to break the macrophages. The plate was shaken for 30 s and a further 180 μL of medium was added to each well. The plates were then incubated at 26 °C for 72 h for the transformation of the rescued amastigote into promastigotes. AlamarBlue® was added and the plates were measured and analyzed as discussed above.

Series [3] in a line: Cytotoxic activity against murine macrophages (alamarBlue). As to conditions: mouse.
[4] abbreviates: 24 h treatment of infected macrophages, rescue 72 h.
Where [5] appears, read: Leishmania amazonensis, alamarBlue.

Each structure is given as a SMILES string. Where two headings read alike, the source gives them in different places.

Turning to `O=C(Nc1ccc(C(F)(F)F)c(C(F)(F)F)c1)c1cc(Cl)ccc1O` [MMV687807], the “% of inhibition at 10 µM (against L. amazonensis promastigotes)” value (“% of inhibition at 10 µM” for short) in series [1] amounted to 90%.
As for `Cc1ccc(NC(=O)c2nc[nH]c2C(=O)Nc2nc3ccccc3[nH]2)c(C)c1` [MMV011903], the “% of inhibition at 10 µM” value in series [1] was 86%.
For the molecule `N=C(N)c1ccc(OCCCCCOc2ccc(C(=N)N)cc2)cc1` [MMV000062, reference compound], the “% of inhibition at 10 µM” value in series [1] was 89%.
Usually IC50 stands for the concentration that inhibits the measured activity by half. A word on the CC50: it is the concentration at which the toxic effect on the cells reaches its halfway point. Read a low CC50 as harm at low concentration. For the molecule `COc1nc2ccc(Br)cc2cc1[C@@H](c1ccccc1)[C@@](O)(CCN(C)C)c1cccc2ccccc12` [Compound 1, Bedaquiline, reference compound], the IC50 in series [2] is more than 10 µM; in series [1] (Leishmania amazonensis), 6.43 ± 1.06 µM. The “Selectivity Index (CC50/IC50), promastigotes” value in series [1] is on record as more than 1.56. For the same molecule, in series [3], the CC50 at 24 h is more than 10 µM.
For the molecule `COc1ccc(Oc2ccc([C@@H](C)N(C)c3ncc4c(N)nc(N)nc4n3)cc2)cc1` [MMV690102], in series [1], the “% of inhibition at 10 µM” value is listed as 89%.
On to `N#Cc1nc(-c2ccccc2)oc1S(=O)(=O)c1ccc(Cl)cc1` [MMV676412], for which, in series [1], the “% of inhibition at 10 µM” value turned out to be 93%.
On the same count and under the same terms, then `COc1cccc(-n2nnnc2S(C)(=O)=O)c1` [MMV272144], with 89%.
In the case of `CNc1nnc(Sc2cnn(-c3ccccc3)c(=O)c2Cl)s1` [MMV688763], the “% of inhibition at 10 µM” value in series [1] was 86%.
Take `COc1ccc2nccc(NC(=O)C3CCN(CCc4ccc(Cl)cc4)CC3)c2n1` [MMV688844]: the “% of inhibition at 10 µM” value in series [1] turned out to be 80%.
Turning to `CN1CCN(S(=O)(=O)c2ccc(-c3ccc4c(Nc5ncc(Cl)cn5)ccnc4c3)cc2)CC1` [MMV688283], the “% of inhibition at 10 µM” value in series [1] is 85%.
For the molecule `Cc1ccc(S(=O)(=O)n2cc(-c3ccnc(N)c3)c3cc(Br)cnc32)cc1` [MMV024114], in series [1], the “% of inhibition at 10 µM” value was found to be 92%.
In the case of `CC(=O)OC[C@H]1O[C@@H]([S-])[C@H](OC(C)=O)[C@@H](OC(C)=O)[C@@H]1OC(C)=O.CC[PH+](CC)CC.[Au]` [MMV688978, reference compound], in series [1], the “% of inhibition at 10 µM” value was 90%.
Same read-out and setting: then `COC(=O)c1c(NC(=O)c2c(F)c(F)c(F)c(F)c2F)sc2c1CCCCC2` [MMV461553], with 88%; and `Nc1ccc2ncnc(Nc3ccc(OCc4cccc(F)c4)c(Cl)c3)c2c1` [MMV688273], with 79%; and `C[C@]1(COc2ccc(N3CCC(Oc4ccc(OC(F)(F)F)cc4)CC3)cc2)Cn2cc([N+](=O)[O-])nc2O1` [MMV688262], with 86%.
As for `Cc1[nH]c2cc(F)cc(F)c2c(=O)c1-c1ccc(Oc2ccc(OC(F)(F)F)cc2)cc1` [MMV671636], the “% of inhibition at 10 µM” value in series [1] was determined as 66%.
With `Cc1cc(NCCc2ccccc2)nc(NC(=N)Nc2ccc(Cl)cc2)n1` [MMV021660], the “% of inhibition at 10 µM” value in series [1] was determined as 87%.
In the case of `NCCN(C(=O)c1ccc(Cl)cc1Cl)c1ccc(OCc2ccc(Cl)cc2)cc1` [MMV688371], the “% of inhibition at 10 µM” value in series [1] came out at 89%.
For `CCCCOC(=O)Nc1cc2[nH]c(C3CCCCC3)nc2cc1N1CCCC1` [MMV687730], the “% of inhibition at 10 µM” value in series [1] is given as 87%.
As to `O=C(c1ccco1)N(CCCn1ccnc1)c1nc2c(Cl)cccc2s1` [MMV688936], the “% of inhibition at 10 µM” value in series [1] is recorded as 90%.
In the case of `Cc1ncc(-c2ccnc(Nc3ccc(S(C)(=O)=O)cc3)n2)n1C(C)C` [MMV676604], in series [1], the “% of inhibition at 10 µM” value came to 66%.
For `O[C@@H](c1cc(C(F)(F)F)nc2c(C(F)(F)F)cccc12)[C@H]1CCCCN1` [MMV000016, reference compound], in series [1], the “% of inhibition at 10 µM” value amounted to 86%.
Regarding `Brc1cncc(-c2cc(NCCCn3ccnc3)nc(-c3ccccc3)n2)c1` [MMV661713], in series [1], the “% of inhibition at 10 µM” value came out at 84%.
Take `CN(C)c1cc(NC(=O)Nc2ccccc2)c2ccccc2n1` [MMV006901]: the “% of inhibition at 10 µM” value in series [1] worked out at 85%.
For `Cc1ccc2oc(-c3cc(NC(=O)Cc4ccccc4)ccc3Cl)nc2c1` [MMV676509], the “% of inhibition at 10 µM” value in series [1] is 80%.
Turning to `Cn1c(=O)c2c(S(C)(=O)=O)snc2n(C)c1=O` [Compound 4], the IC50 in series [2] (setting [4]) is more than 10 µM; in series [1] (setting [5]), less than 2 µM; in series [1] (alamarBlue), 1.44 ± 0.24 µM. Also, the “Selectivity Index (CC50/IC50), promastigotes” value in series [1] is on record as 2.94. Further, in series [3] (J774A.1 murine macrophages), it took 4.3 ± 0.16 µM to reach half-maximal cytotoxicity (CC50 at 24 h).
Turning to `Cc1cc(C2=NOC(c3cc(Cl)c(F)c(Cl)c3)(C(F)(F)F)C2)ccc1C(=O)NCc1ccc2c(c1)C(C)(C)OB2O` (stereo not shown) [MMV687776], the “% of inhibition at 10 µM” value in series [1] amounted to 52%.
On to `c1coc(CNc2nc(N3CCCCC3)nc3ccccc23)c1` [MMV676401], for which, in series [1], the “% of inhibition at 10 µM” value is reported as 84%.
On the same count and under the same terms, next, `CCOc1ccc(-c2nc(CNCCc3ccc(F)cc3)cs2)cc1` [MMV688938]: 85%; `CO/N=C(/C(=O)OC)c1ccccc1CO/N=C(/C)c1cccc(C(F)(F)F)c1` [MMV688754]: 76%.
Same read-out and setting: next, `CCOC(=O)c1c(NC(=O)c2c(F)c(F)c(F)c(F)c2F)sc(C(N)=O)c1C` [MMV153413]: 86%; `CC1(O)CC(c2nc(-c3ccc4ccc(-c5ccccc5)nc4c3)c3c(N)nccn23)C1` (stereo not shown) [MMV676605]: 53%; `Cc1cnc(N2CCN[C@@H](Cc3ccccc3)C2)nc1Oc1ccc(-n2ccnc2)cc1` [MMV687765]: 82%.
On to `O=C(Nc1ccc(F)c(-c2nc3ncc(-c4ccccc4)cc3[nH]2)c1)N1CCCC1` [MMV688372], for which the “% of inhibition at 10 µM” value in series [1] came out at 87%.
As to `COc1nc2ccc(Br)cc2cc1[C@@H](c1ccccc1)[C@@](O)(CCN(C)C)c1cccc2ccccc12` [MMV689758, reference compound], the “% of inhibition at 10 µM” value in series [1] is listed as 90%.
`CC(C)N=c1cc2n(-c3ccc(Cl)cc3)c3ccccc3nc-2cc1Nc1ccc(Cl)cc1` [MMV687800, reference compound]: the “% of inhibition at 10 µM” value in series [1] is listed as 88%.
In the case of `N#Cc1nc(-c2ccccc2)oc1S(=O)(=O)c1ccc(Cl)cc1` [Compound 2], the values for the IC50 in series [2] (setting [4]) and in series [1] (setting [5]) were more than 10 µM and 4.03 ± 0.73 µM, respectively. The “Selectivity Index (CC50/IC50), promastigotes” value in series [1] is more than 2.48. In addition, the half-maximal cytotoxic concentration (CC50) at 24 h in series [3] (J774A.1 murine macrophages) was more than 10 µM.
Consider `CC(c1cc(Cl)cc(Cl)c1)N(C)c1ncc2c(N)nc(N)nc2n1` (stereo not shown) [MMV689437], for which the “% of inhibition at 10 µM” value in series [1] is on record as 89%.
As for `CC(C)=CCC/C(C)=C\CNCCNC1C2CC3CC(C2)CC1C3` (stereo not shown) [MMV687273], the “% of inhibition at 10 µM” value in series [1] was 89%.
For the molecule `O=C(Nc1cccc(Cl)c1)c1cnc(N2CCN(c3ccncc3)CC2)c(Cl)c1` [MMV024406], in series [1], the “% of inhibition at 10 µM” value turned out to be 92%.
`CN1CCN(CCCOc2ncc(Nc3ncc(-c4ccc(C(F)(F)F)c(F)c4)nc3C(N)=O)cn2)CC1` [Compound 8]: the values for the IC50 in series [2] (setting [4]) and in series [1] (setting [5]) were 6.85 ± 0.75 µM and 2.62 ± 0.4 µM, respectively. The “Selectivity Index (CC50/IC50), intracellular amastigote” value in series [2] (macrophage CC50 / amastigote IC50) amounted to 1.17. For the same molecule, the “Selectivity Index (CC50/IC50), promastigotes” value in series [1] is 3.06. It took 8.01 ± 1.13 µM to reach half-maximal cytotoxicity in series [3] (J774A.1 murine macrophages) (CC50 at 24 h).
Regarding `CCC(Sc1nc2ccccc2o1)C(=O)Nc1nccs1` (stereo not shown) [MMV676383], the “% of inhibition at 10 µM” value in series [1] is on record as 83%.
As for `CS(=O)(=O)c1ccc(C(=O)N(CC2CCCO2)c2nc3ccccc3s2)cc1[N+](=O)[O-]` (stereo not shown) [MMV688761], the “% of inhibition at 10 µM” value in series [1] is recorded as 88%.
The same measure, in the same setting: next, `Cc1ccc(-c2nc(CN(Cc3ccccn3)C(C)C)cs2)o1` [MMV1088520]: 89%; `CCc1c(C)nc(-n2nc(C)cc2NC(=O)c2ccccc2SC)[nH]c1=O` [MMV676477]: 92%; `COc1cccc(-c2nc3c(N4CCCC4)cccc3n2CC2CCCN2)n1` (stereo not shown) [MMV687703]: 85%.
Consider `NC(N)=Nc1ccc(-c2ccc(-c3ccc(N=C(N)N)cc3Cl)o2)c(Cl)c1` [MMV688179], for which the “% of inhibition at 10 µM” value in series [1] is recorded as 86%.
As for `Cc1nc(-c2ccccn2)nc(N2CCC(Cc3ccccc3)C2)c1Cl` (stereo not shown) [MMV659004], the “% of inhibition at 10 µM” value in series [1] was 87%.
`Cc1[nH]c2ccccc2c1C(c1cccs1)N1CCN(C)CC1` (stereo not shown) [MMV688768]: in series [1], the “% of inhibition at 10 µM” value was 86%.
As for `CC(C)n1nc(-c2cc3c(Cl)cccc3[nH]2)c2c(N)ncnc21` [MMV688417], the “% of inhibition at 10 µM” value in series [1] was 87%.
